Tests used:
[1] = biological target: Glutamate NMDA receptor (Rattus norvegicus) (UniProt P35439+Q00959+Q00960+Q00961+Q62645+Q8VHN2+Q9R1M7); assay: Inhibition of Glutamate, NMDA, Glycine at 10.0 µM in the Eurofins Panlabs Safety Screen; format: protein-complex assay; details: Compound concentration 10.0 uM
[2] = biological target: Testis-specific serine/threonine-protein kinase 4 (Homo sapiens) (UniProt Q6SA08); assay: Inhibition of TSSK4(h) at 10.0 µM in the Eurofins Kinase panel; details: Compound concentration 10.0 uM
[3] = biological target: Serine/threonine-protein kinase Nek1 (Homo sapiens) (UniProt Q96PY6); assay: Inhibition of NEK1(h) at 10.0 µM in the Eurofins Kinase panel; details: Compound concentration 10.0 uM
[4] = biological target: Serine/threonine-protein kinase Sgk3 (Homo sapiens) (UniProt Q96BR1); assay: Inhibition of SGK3(h) at 10.0 µM in the Eurofins Kinase panel; details: Compound concentration 10.0 uM
[5] = biological target: Serine/threonine-protein kinase 38 (Homo sapiens) (UniProt Q15208); assay: Inhibition of NDR1(h) at 10.0 µM in the Eurofins Kinase panel; details: Compound concentration 10.0 uM
[6] = biological target: Serine/threonine-protein kinase DCLK3 (Homo sapiens) (UniProt Q9C098); assay: Inhibition of DCAMKL3(h) at 10.0 µM in the Eurofins Kinase panel; details: Compound concentration 10.0 uM
[7] = biological target: MAP kinase-activated protein kinase 3 (Homo sapiens) (UniProt Q16644); assay: Inhibition of MAPKAP-K3(h) at 10.0 µM in the Eurofins Kinase panel; details: Compound concentration 10.0 uM
[8] = biological target: Serine/threonine-protein kinase ICK (Homo sapiens) (UniProt Q9UPZ9); assay: Inhibition of ICK(h) at 10.0 µM in the Eurofins Kinase panel; details: Compound concentration 10.0 uM
[9] = biological target: STE20/SPS1-related proline-alanine-rich protein kinase (Homo sapiens) (UniProt Q9UEW8); assay: Inhibition of STK39(h) at 10.0 µM in the Eurofins Kinase panel; details: Compound concentration 10.0 uM
[10] = biological target: Casein kinase II subunit alpha' (Homo sapiens) (UniProt P19784); assay: Inhibition of CK2alpha2(h) at 10.0 µM in the Eurofins Kinase panel; details: Compound concentration 10.0 uM
[11] = biological target: GABA transporter (Rattus norvegicus) (UniProt P31647+P23978+P31646+P48056); assay: Inhibition of Transporter, GABA at 10.0 µM in the Eurofins Panlabs Safety Screen; format: protein assay; details: Compound concentration 10.0 uM
[12] = biological target: Vascular endothelial growth factor receptor 3 (Homo sapiens) (UniProt P35916); assay: Inhibition of Flt4(h) at 10.0 µM in the Eurofins Kinase panel; details: Compound concentration 10.0 uM
[13] = biological target: Serine/threonine-protein kinase tousled-like 1 (Homo sapiens) (UniProt Q9UKI8); assay: Inhibition of TLK1(h) at 10.0 µM in the Eurofins Kinase panel; details: Compound concentration 10.0 uM
[14] = biological target: Methionine aminopeptidase 2 (Homo sapiens, UniProt P50579); assay: Degradation in HT1080 cells (CE) Dmax (Capillary electrophoresis (CE)); format: functional, cell-based; details: HT-1080
[15] = biological target: Megakaryocyte-associated tyrosine-protein kinase (Homo sapiens) (UniProt P42679); assay: Inhibition of MATK(h) at 10.0 µM in the Eurofins Kinase panel; details: Compound concentration 10.0 uM
[16] = biological target: Beta-1 adrenergic receptor (Homo sapiens) (UniProt P08588); details: Compound concentration 10.0 uM
[17] = biological target: Serine/threonine-protein kinase pim-3 (Homo sapiens) (UniProt Q86V86); assay: Inhibition of Pim-3(h) at 10.0 µM in the Eurofins Kinase panel; details: Compound concentration 10.0 uM
[18] = test system: Arachidonate 15-lipoxygenase B ALOX15B (Homo sapiens); assay: Inhibition of Lipoxygenase 15-LOX-2 at 10.0 µM in the Eurofins Panlabs Safety Screen; details: Compound concentration 10.0 uM

Beta-1 adrenergic receptor (Homo sapiens), sequence (P08588 whole entry, looked up): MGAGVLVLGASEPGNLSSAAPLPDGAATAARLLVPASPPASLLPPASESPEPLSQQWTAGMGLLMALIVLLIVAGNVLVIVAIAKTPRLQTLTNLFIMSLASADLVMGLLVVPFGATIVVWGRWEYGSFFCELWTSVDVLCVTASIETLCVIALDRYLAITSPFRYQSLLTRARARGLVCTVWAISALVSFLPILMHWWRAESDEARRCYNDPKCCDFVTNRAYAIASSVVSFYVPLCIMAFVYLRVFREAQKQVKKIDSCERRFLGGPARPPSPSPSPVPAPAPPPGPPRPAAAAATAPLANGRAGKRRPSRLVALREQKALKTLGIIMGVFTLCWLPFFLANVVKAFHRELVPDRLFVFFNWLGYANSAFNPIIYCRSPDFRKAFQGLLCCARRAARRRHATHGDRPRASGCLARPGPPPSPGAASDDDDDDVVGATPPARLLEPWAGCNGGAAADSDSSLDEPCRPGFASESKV
GABA transporter (Rattus norvegicus), sequence (P31646 whole entry, looked up): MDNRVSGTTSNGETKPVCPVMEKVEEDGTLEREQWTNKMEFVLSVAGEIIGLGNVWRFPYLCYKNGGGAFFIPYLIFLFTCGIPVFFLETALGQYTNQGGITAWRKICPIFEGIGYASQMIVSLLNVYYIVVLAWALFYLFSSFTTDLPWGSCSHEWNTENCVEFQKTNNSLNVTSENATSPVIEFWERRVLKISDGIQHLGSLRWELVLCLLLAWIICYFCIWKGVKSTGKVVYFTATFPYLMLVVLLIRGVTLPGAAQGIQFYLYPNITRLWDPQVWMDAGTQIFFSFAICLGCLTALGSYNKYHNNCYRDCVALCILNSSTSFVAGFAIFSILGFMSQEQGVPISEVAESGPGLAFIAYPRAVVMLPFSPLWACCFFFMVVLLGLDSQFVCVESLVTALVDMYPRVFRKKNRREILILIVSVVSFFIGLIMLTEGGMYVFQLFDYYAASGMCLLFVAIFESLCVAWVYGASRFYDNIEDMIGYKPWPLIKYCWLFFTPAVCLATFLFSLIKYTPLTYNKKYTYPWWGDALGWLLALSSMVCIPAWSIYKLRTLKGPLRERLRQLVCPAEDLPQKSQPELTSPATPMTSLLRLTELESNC
GABA transporter (Rattus norvegicus), sequence (P31647 whole entry, looked up): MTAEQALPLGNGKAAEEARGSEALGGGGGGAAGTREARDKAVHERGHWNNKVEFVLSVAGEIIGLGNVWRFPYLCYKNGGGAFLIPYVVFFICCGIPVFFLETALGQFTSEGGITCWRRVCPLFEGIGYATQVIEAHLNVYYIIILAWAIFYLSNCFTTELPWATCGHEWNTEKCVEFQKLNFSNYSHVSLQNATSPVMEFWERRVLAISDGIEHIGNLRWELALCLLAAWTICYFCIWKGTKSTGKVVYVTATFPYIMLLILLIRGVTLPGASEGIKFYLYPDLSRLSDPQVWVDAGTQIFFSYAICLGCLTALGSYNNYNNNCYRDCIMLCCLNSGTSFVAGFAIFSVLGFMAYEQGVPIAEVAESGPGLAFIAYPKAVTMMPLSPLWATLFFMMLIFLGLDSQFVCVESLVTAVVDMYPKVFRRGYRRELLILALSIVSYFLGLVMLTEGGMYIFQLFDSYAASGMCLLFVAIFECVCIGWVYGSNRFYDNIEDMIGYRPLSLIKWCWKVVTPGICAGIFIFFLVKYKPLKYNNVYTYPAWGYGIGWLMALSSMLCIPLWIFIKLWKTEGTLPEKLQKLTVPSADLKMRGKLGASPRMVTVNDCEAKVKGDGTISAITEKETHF
GABA transporter (Rattus norvegicus), sequence (P48056 whole entry, looked up): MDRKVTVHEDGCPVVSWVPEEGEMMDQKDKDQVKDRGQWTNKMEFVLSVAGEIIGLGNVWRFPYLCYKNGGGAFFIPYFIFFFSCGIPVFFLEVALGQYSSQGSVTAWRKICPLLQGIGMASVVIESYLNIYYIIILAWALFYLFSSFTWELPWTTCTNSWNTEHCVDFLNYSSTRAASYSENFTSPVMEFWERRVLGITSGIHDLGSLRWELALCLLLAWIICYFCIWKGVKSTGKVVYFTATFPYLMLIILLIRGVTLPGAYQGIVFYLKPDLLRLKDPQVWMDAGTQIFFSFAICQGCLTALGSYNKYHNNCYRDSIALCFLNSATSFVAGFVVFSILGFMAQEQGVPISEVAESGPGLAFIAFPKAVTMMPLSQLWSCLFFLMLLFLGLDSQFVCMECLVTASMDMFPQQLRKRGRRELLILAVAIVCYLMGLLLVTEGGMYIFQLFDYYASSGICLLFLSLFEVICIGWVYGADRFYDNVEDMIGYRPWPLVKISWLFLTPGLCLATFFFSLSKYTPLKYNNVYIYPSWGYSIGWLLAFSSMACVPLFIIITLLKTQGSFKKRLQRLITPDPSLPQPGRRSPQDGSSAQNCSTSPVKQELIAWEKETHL
Serine/threonine-protein kinase 38 (Homo sapiens), sequence (Q15208 2-465 limits assumed): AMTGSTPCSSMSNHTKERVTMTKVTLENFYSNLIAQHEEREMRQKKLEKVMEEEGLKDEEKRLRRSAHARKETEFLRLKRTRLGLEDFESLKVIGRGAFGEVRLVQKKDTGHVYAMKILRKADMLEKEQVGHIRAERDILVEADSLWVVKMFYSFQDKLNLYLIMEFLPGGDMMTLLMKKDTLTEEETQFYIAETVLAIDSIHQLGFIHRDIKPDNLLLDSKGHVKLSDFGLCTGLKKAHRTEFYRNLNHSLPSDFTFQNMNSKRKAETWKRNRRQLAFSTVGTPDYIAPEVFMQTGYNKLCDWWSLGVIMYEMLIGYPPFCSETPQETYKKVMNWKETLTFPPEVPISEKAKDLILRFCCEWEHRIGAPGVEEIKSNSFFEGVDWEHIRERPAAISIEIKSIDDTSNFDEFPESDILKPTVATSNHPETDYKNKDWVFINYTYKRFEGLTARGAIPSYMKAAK
Serine/threonine-protein kinase DCLK3 (Homo sapiens), sequence (Q9C098 whole entry): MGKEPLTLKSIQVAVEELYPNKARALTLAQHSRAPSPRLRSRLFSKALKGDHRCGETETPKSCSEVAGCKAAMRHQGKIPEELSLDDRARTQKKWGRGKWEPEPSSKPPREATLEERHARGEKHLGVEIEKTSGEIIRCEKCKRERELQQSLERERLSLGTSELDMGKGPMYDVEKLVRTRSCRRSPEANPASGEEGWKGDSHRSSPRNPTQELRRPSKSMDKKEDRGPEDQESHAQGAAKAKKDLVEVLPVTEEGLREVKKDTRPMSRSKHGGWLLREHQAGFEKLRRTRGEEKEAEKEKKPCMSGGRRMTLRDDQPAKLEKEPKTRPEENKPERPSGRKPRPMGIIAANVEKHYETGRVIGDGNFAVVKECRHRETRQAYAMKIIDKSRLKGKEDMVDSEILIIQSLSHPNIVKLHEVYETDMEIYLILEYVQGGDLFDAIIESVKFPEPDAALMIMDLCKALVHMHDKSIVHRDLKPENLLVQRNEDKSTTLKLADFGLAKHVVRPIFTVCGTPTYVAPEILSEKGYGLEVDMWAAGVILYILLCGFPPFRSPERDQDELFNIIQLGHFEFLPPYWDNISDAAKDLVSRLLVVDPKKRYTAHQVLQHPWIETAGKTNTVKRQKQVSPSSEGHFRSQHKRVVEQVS
Serine/threonine-protein kinase ICK (Homo sapiens), sequence (Q9UPZ9 whole entry): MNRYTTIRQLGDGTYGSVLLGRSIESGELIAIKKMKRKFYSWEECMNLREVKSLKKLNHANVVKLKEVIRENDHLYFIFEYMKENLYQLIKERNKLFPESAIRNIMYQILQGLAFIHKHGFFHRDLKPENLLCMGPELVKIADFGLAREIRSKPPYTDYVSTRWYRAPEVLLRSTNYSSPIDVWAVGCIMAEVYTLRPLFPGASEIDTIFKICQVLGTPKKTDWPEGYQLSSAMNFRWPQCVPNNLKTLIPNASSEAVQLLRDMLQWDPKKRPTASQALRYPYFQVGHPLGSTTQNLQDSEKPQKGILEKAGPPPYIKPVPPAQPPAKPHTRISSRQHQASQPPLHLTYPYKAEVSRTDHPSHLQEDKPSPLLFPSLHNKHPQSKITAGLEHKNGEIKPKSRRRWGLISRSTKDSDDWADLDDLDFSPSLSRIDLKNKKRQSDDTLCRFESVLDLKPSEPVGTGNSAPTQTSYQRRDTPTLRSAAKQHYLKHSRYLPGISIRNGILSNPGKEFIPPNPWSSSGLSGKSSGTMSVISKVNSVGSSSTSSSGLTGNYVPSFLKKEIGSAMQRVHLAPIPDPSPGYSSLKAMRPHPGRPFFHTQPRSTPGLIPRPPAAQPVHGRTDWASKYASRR

SMILES	inhibition [1]	inhibition [2]	inhibition [3]	inhibition [4]	inhibition [5]	inhibition [6]	inhibition [7]	inhibition [8]	inhibition [9]	inhibition [10]	inhibition [11]	inhibition [12]	inhibition [13]	Dmax [14]	inhibition [15]	inhibition [16]	inhibition [17]	inhibition [18]
O=C1NCCCC1N1Cc2cc(C3CCN(C(=O)CCCCCN4CCC(c5ccc(Oc6nn7cnnc7c7c6CCCC7)cc5)CC4)CC3)ccc2C1=O (stereo not drawn)	-6%	10.8%	11.4%	13.4%	11.2%	10.5%	11.4%	10.1%	11.5%	10.9%	–	–	–	–	–	–	–	–
O=C1CCC(N2Cc3cc(C4CCN(C(=O)CCCCCN5CCC(c6ccc(Oc7nn8cnnc8c8c7CCCC8)cc6)CC5)CC4)ccc3C2=O)C(=O)N1 (stereo not drawn)	–	–	–	–	–	–	–	–	–	–	5%	12.5%	12.3%	88.5%	19.7%	0.81%	10.3%	-1%

From ChEMBL document CHEMBL5463725, “Data for DCP probe BAY-277” (2023)
